pIC50: −log10 of the molar value. Residues, ends and D or L forms follow the SMILES beside them. *: point of attachment. X24 = CN(Cc1ccc(-c2[nH]c3cc(F)cc4c3c2CCNC4=O)cc1)C(=O)O[C@H](CS*)c1ccccc1; X26 = C[C@H](COC(=O)N1CCC[C@@H](c2ccc(-n3cc4cccc(C(N)=O)c4n3)cc2)C1)S*; X14 = C[C@@H](COC(=O)N1CCC[C@]1(C)c1nc2c(C(N)=O)cccc2[nH]1)S*; X20 = C[C@]12CCCN1C1=NNC(=O)c3cc(F)cc4c3c1c(n4CNC(=O)OCCS*)C2

In general, pIC50 refers to the negative decadic logarithm of the IC50, by convention in mol/L.

The target of the experiment is PARP (Homo sapiens, UniProt P09874). The experiment in a line: Enzymatic Assay 2: HT Universal Chemiluminescent PARP Assay of cleaved compounds.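 Further: PARP reaction with activated DNA run 1 h at room temperature, product detected via streptavidin-HRP and luminescence endpoint reading on a plate reader.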 Particulars: read-out: IC50 Enzymatic Assay 2; Examples cleaved per Example A (crude cleavage solution); R^8H starting materials as such.
Sequence of PARP (P09874 whole entry): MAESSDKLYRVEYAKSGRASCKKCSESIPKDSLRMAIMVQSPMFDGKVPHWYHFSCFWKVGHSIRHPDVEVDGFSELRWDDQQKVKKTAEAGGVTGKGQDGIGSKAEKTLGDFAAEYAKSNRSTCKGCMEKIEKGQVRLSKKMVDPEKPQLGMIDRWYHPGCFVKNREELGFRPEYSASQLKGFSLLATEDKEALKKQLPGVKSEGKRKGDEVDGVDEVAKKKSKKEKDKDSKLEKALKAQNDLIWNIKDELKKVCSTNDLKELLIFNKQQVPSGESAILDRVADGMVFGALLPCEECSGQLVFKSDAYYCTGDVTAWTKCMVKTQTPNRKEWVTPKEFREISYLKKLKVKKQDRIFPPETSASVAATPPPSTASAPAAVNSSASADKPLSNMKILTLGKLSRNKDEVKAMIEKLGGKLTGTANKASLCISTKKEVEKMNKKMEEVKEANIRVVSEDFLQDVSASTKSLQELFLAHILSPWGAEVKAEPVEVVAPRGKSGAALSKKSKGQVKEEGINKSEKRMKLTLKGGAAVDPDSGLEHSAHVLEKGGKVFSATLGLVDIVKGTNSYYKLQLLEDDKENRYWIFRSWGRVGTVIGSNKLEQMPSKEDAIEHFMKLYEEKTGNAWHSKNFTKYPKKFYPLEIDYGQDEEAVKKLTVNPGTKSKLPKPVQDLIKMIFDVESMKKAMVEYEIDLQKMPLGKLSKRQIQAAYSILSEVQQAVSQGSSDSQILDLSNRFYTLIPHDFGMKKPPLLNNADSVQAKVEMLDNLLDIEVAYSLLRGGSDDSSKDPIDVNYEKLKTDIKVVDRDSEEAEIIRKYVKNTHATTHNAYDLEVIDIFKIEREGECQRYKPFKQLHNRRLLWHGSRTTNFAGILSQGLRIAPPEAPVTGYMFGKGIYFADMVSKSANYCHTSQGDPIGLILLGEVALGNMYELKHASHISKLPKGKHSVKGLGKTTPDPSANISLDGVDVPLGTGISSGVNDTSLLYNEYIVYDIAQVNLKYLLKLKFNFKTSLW
Experimental: An equal volume of 1×PARP cocktail containing activated DNA was added to each well and the reaction was incubated for one hour at room temperature. The wells were washed twice with 1×PBS+0.1% Triton X-100 and twice with PBS. 50 ul/well of diluted streptavidin-HRP was added and the wells were incubated for one hour at room temperature. The wells were washed twice with 1×PBS+0.1% Triton X-100 and washed twice with PBS. The liquid was 5 removed, 100 ul/well 1:1 PeroxyGlow A/PeroxyGlow B was added and the chemiluminescent readings were measured on a BioTek Cytation 5 plate reader using the luminescence fiber endpoint.
Consider `CC(C)C[C@H](NC(=O)[C@H](Cc1ccc(O)cc1)NC(=O)[C@H](C)NC(=O)[C@H](CCCNC(=N)N)NC(=O)[C@H](Cc1c[nH]c2ccccc12)NC(=O)[C@@H]1CCCN1C(=O)[C@H](CC(N)=O)NC(=O)[C@H](CCC(N)=O)NC(=O)[C@H](CC(=O)O)NC(=O)[C@H](CC(=O)O)NC(=O)[C@H](C)N)C(=O)N[C@@H](CC(=O)O)C(=O)N[C@@H](CC(C)C)C(=O)N[C@@H](CC(C)C)C(=O)N[C@@H](Cc1ccccc1)C(=O)N1CCC[C@H]1C(=O)N[C@H](C(=O)N[C@@H](CC(=O)O)C(=O)N[C@H](C(=O)N[C@@H](CC(C)C)C(=O)N[C@@H](CC(C)C)C(=O)N[C@@H](CC(C)C)C(=O)N[C@@H](CC(=O)O)C(=O)N[C@@H](CC(C)C)C(=O)N[C@@H](CC(C)C)C(=O)N[C@@H](Cc1c[nH]c2ccccc12)C(=O)N[C@@H](CC(=O)O)C(=O)N[C@@H](C)C(=O)N[C@@H](CC(=O)O)C(=O)N[C@@H](CCC(=O)O)C(=O)N[C@@H](CSS[C@@H](C)COC(=O)N(C)Cc1ccc(-c2[nH]c3cc(F)cc4c3c2CCNC4=O)cc1)C(=O)NCC(=O)O)[C@@H](C)O)[C@@H](C)O` [Example 23], for which the pIC50 is 8.60.
With `CC(C)C[C@H](NC(=O)[C@H](Cc1ccc(O)cc1)NC(=O)[C@H](C)NC(=O)[C@H](CCCNC(=N)N)NC(=O)[C@H](Cc1c[nH]c2ccccc12)NC(=O)[C@@H]1CCCN1C(=O)[C@H](CC(N)=O)NC(=O)[C@H](CCC(N)=O)NC(=O)[C@H](CC(=O)O)NC(=O)[C@H](CC(=O)O)NC(=O)[C@H](C)N)C(=O)N[C@@H](CC(=O)O)C(=O)N[C@@H](CC(C)C)C(=O)N[C@@H](CC(C)C)C(=O)N[C@@H](Cc1ccccc1)C(=O)N1CCC[C@H]1C(=O)N[C@H](C(=O)N[C@@H](CC(=O)O)C(=O)N[C@H](C(=O)N[C@@H](CC(C)C)C(=O)N[C@@H](CC(C)C)C(=O)N[C@@H](CC(C)C)C(=O)N[C@@H](CC(=O)O)C(=O)N[C@@H](CC(C)C)C(=O)N[C@@H](CC(C)C)C(=O)N[C@@H](Cc1c[nH]c2ccccc12)C(=O)N[C@@H](CC(=O)O)C(=O)N[C@@H](C)C(=O)N[C@@H](CC(=O)O)C(=O)N[C@@H](CCC(=O)O)C(=O)N[C@@H](CSS[C@@H](C)COC(=O)N1CCC[C@@H](c2ccc(-n3cc4cccc(C(N)=O)c4n3)cc2)C1)C(=O)NCC(=O)O)[C@@H](C)O)[C@@H](C)O` [Example 46] the figure was 8.43; with `CC(C)C[C@H](NC(=O)[C@H](Cc1ccc(O)cc1)NC(=O)[C@H](C)NC(=O)[C@H](CCCNC(=N)N)NC(=O)[C@H](Cc1c[nH]c2ccccc12)NC(=O)[C@@H]1CCCN1C(=O)[C@H](CC(N)=O)NC(=O)[C@H](CCC(N)=O)NC(=O)[C@H](CC(=O)O)NC(=O)[C@H](CC(=O)O)NC(=O)[C@H](C)N)C(=O)N[C@@H](CC(=O)O)C(=O)N[C@@H](CC(C)C)C(=O)N[C@@H](CC(C)C)C(=O)N[C@@H](Cc1ccccc1)C(=O)N1CCC[C@H]1C(=O)N[C@H](C(=O)N[C@@H](CC(=O)O)C(=O)N[C@H](C(=O)N[C@@H](CC(C)C)C(=O)N[C@@H](CC(C)C)C(=O)N[C@@H](CC(C)C)C(=O)N[C@@H](CC(=O)O)C(=O)N[C@@H](CC(C)C)C(=O)N[C@@H](CC(C)C)C(=O)N[C@@H](Cc1c[nH]c2ccccc12)C(=O)N[C@@H](CSSC1(COC(=O)N(C)Cc2ccc(-c3[nH]c4cc(F)cc5c4c3CCNC5=O)cc2)CCC1)C(=O)NCC(=O)O)[C@@H](C)O)[C@@H](C)O` [Example 44], 8.82.
With `CC[C@H](C)[C@H](NC(=O)[C@@H]1CCCN1C(=O)[C@H](CC(N)=O)NC(=O)[C@H](CCC(N)=O)NC(=O)[C@H](CCC(=O)O)NC(=O)[C@H](C)N)C(=O)N[C@@H](Cc1ccc(O)cc1)C(=O)N[C@@H](Cc1c[nH]c2ccccc12)C(=O)N[C@@H](C)C(=O)N[C@@H](CCCNC(=N)N)C(=O)N[C@@H](Cc1ccc(O)cc1)C(=O)N[C@@H](C)C(=O)N[C@@H](CC(=O)O)C(=O)N[C@@H](Cc1c[nH]c2ccccc12)C(=O)N[C@@H](CC(C)C)C(=O)N[C@@H](Cc1ccccc1)C(=O)N[C@H](C(=O)N[C@H](C(=O)N1CCC[C@H]1C(=O)N[C@@H](CC(C)C)C(=O)N[C@@H](CC(C)C)C(=O)N[C@@H](CC(C)C)C(=O)N[C@@H](CC(C)C)C(=O)N[C@@H](CC(=O)O)C(=O)N[C@@H](CC(C)C)C(=O)N[C@@H](C)C(=O)N[C@@H](CC(C)C)C(=O)N[C@@H](CC(C)C)C(=O)N[C@H](C(=O)N[C@@H](CC(=O)O)C(=O)N[C@@H](C)C(=O)N[C@@H](CC(=O)O)C(=O)N[C@@H](CCC(=O)O)C(=O)N[C@@H](CSSCCOC(=O)NCn1c2c3c4c(cc(F)cc41)C(=O)NN=C3N1CCC[C@]1(C)C2)C(=O)NCC(=O)O)C(C)C)[C@@H](C)O)[C@@H](C)O` [Example 38] (H-AEQNPIYWARYADWLFTTPLLLLDLALLVDADEC(X20)G-OH; N-terminus and C-terminus assumed) the figure was 8.55; with `CC[C@H](C)[C@H](NC(=O)[C@@H]1CCCN1C(=O)[C@H](CC(N)=O)NC(=O)[C@H](CCC(N)=O)NC(=O)[C@H](CCC(=O)O)NC(=O)[C@H](C)N)C(=O)N[C@@H](Cc1ccc(O)cc1)C(=O)N[C@@H](Cc1c[nH]c2ccccc12)C(=O)N[C@@H](C)C(=O)N[C@@H](CCCNC(=N)N)C(=O)N[C@@H](Cc1ccc(O)cc1)C(=O)N[C@@H](C)C(=O)N[C@@H](CC(=O)O)C(=O)N[C@@H](Cc1c[nH]c2ccccc12)C(=O)N[C@@H](CC(C)C)C(=O)N[C@@H](Cc1ccccc1)C(=O)N[C@H](C(=O)N[C@H](C(=O)N1CCC[C@H]1C(=O)N[C@@H](CC(C)C)C(=O)N[C@@H](CC(C)C)C(=O)N[C@@H](CC(C)C)C(=O)N[C@@H](CC(C)C)C(=O)N[C@@H](CC(=O)O)C(=O)N[C@@H](CC(C)C)C(=O)N[C@@H](C)C(=O)N[C@@H](CC(C)C)C(=O)N[C@@H](CC(C)C)C(=O)N[C@H](C(=O)N[C@@H](CC(=O)O)C(=O)N[C@@H](C)C(=O)N[C@@H](CC(=O)O)C(=O)N[C@@H](CCC(=O)O)C(=O)N[C@@H](CSS[C@@H](C)COC(=O)N1CCC[C@]1(C)c1nc2c(C(N)=O)cccc2[nH]1)C(=O)NCC(=O)O)C(C)C)[C@@H](C)O)[C@@H](C)O` [Example 55] (H-AEQNPIYWARYADWLFTTPLLLLDLALLVDADEC(X14)G-OH; N-terminus and C-terminus assumed), 9.15; with `CC[C@H](C)[C@H](NC(=O)[C@@H]1CCCN1C(=O)[C@H](CC(N)=O)NC(=O)[C@H](CCC(N)=O)NC(=O)[C@H](CCC(=O)O)NC(=O)[C@H](C)N)C(=O)N[C@@H](Cc1ccc(O)cc1)C(=O)N[C@@H](Cc1c[nH]c2ccccc12)C(=O)N[C@@H](C)C(=O)N[C@@H](CCCNC(=N)N)C(=O)N[C@@H](Cc1ccc(O)cc1)C(=O)N[C@@H](C)C(=O)N[C@@H](CC(=O)O)C(=O)N[C@@H](Cc1c[nH]c2ccccc12)C(=O)N[C@@H](CC(C)C)C(=O)N[C@@H](Cc1ccccc1)C(=O)N[C@H](C(=O)N[C@H](C(=O)N1CCC[C@H]1C(=O)N[C@@H](CC(C)C)C(=O)N[C@@H](CC(C)C)C(=O)N[C@@H](CC(C)C)C(=O)N[C@@H](CC(C)C)C(=O)N[C@@H](CC(=O)O)C(=O)N[C@@H](CC(C)C)C(=O)N[C@@H](C)C(=O)N[C@@H](CC(C)C)C(=O)N[C@@H](CC(C)C)C(=O)N[C@H](C(=O)N[C@@H](CC(=O)O)C(=O)N[C@@H](C)C(=O)N[C@@H](CC(=O)O)C(=O)N[C@@H](CCC(=O)O)C(=O)N[C@@H](CSSC[C@@H](OC(=O)N(C)Cc1ccc(-c2[nH]c3cc(F)cc4c3c2CCNC4=O)cc1)c1ccccc1)C(=O)NCC(=O)O)C(C)C)[C@@H](C)O)[C@@H](C)O` [Example 25] (H-AEQNPIYWARYADWLFTTPLLLLDLALLVDADEC(X24)G-OH; N-terminus and C-terminus assumed), 8.47.
Next, `CC(C)C[C@H](NC(=O)[C@H](Cc1ccc(O)cc1)NC(=O)[C@H](C)NC(=O)[C@H](CCCNC(=N)N)NC(=O)[C@H](Cc1c[nH]c2ccccc12)NC(=O)[C@@H]1CCCN1C(=O)[C@H](CC(N)=O)NC(=O)[C@H](CCC(N)=O)NC(=O)[C@H](CC(=O)O)NC(=O)[C@H](CC(=O)O)NC(=O)[C@H](C)N)C(=O)N[C@@H](CC(=O)O)C(=O)N[C@@H](CC(C)C)C(=O)N[C@@H](CC(C)C)C(=O)N[C@@H](Cc1ccccc1)C(=O)N1CCC[C@H]1C(=O)N[C@H](C(=O)N[C@@H](CC(=O)O)C(=O)N[C@H](C(=O)N[C@@H](CC(C)C)C(=O)N[C@@H](CC(C)C)C(=O)N[C@@H](CC(C)C)C(=O)N[C@@H](CC(=O)O)C(=O)N[C@@H](CC(C)C)C(=O)N[C@@H](CC(C)C)C(=O)N[C@@H](Cc1c[nH]c2ccccc12)C(=O)N[C@@H](CC(=O)O)C(=O)N[C@@H](C)C(=O)N[C@@H](CC(=O)O)C(=O)N[C@@H](CCC(=O)O)C(=O)N[C@@H](CSSc1ccc(COC(=O)N(C)Cc2ccc(-c3[nH]c4cc(F)cc5c4c3CCNC5=O)cc2)cc1)C(=O)NCC(=O)O)[C@@H](C)O)[C@@H](C)O` [Example 37]: 8.51; `CC[C@H](C)[C@H](NC(=O)[C@@H]1CCCN1C(=O)[C@H](CC(N)=O)NC(=O)[C@H](CCC(N)=O)NC(=O)[C@H](CCC(=O)O)NC(=O)[C@H](C)N)C(=O)N[C@@H](Cc1ccc(O)cc1)C(=O)N[C@@H](Cc1c[nH]c2ccccc12)C(=O)N[C@@H](C)C(=O)N[C@@H](CCCNC(=N)N)C(=O)N[C@@H](Cc1ccc(O)cc1)C(=O)N[C@@H](C)C(=O)N[C@@H](CC(=O)O)C(=O)N[C@@H](Cc1c[nH]c2ccccc12)C(=O)N[C@@H](CC(C)C)C(=O)N[C@@H](Cc1ccccc1)C(=O)N[C@H](C(=O)N[C@H](C(=O)N1CCC[C@H]1C(=O)N[C@@H](CC(C)C)C(=O)N[C@@H](CC(C)C)C(=O)N[C@@H](CC(C)C)C(=O)N[C@@H](CC(C)C)C(=O)N[C@@H](CC(=O)O)C(=O)N[C@@H](CC(C)C)C(=O)N[C@@H](C)C(=O)N[C@@H](CC(C)C)C(=O)N[C@@H](CC(C)C)C(=O)N[C@H](C(=O)N[C@@H](CC(=O)O)C(=O)N[C@@H](C)C(=O)N[C@@H](CC(=O)O)C(=O)N[C@@H](CCC(=O)O)C(=O)N[C@@H](CSS[C@H](C)COC(=O)N1CCC[C@@H](c2ccc(-n3cc4cccc(C(N)=O)c4n3)cc2)C1)C(=O)NCC(=O)O)C(C)C)[C@@H](C)O)[C@@H](C)O` [Example 47] (H-AEQNPIYWARYADWLFTTPLLLLDLALLVDADEC(X26)G-OH; N-terminus and C-terminus assumed): 8.62.
